Test results taken from US8541464B2, “Treatment of atrial fibrillation” (HUYA Biosciences International LLC, priority 2009, dated 2013).
Several values for one entry are separate records, joined by “and”; a condition that tells them apart may be missing. Equal entries are not always repeated.

How the values were obtained:
minipigs = test: Cardiovascular safety in anesthetized minipigs, escalating 15-minute IV infusions; assay type: in vivo, minipig
Experimental: Animals were administered morphine (2 mg/kg subcutaneously) prior to induction of anesthesia. […] Animals were placed on a heating pad set to maintain the animal's body temperature at approximately 37° C. Body temperature was monitored throughout the experiment via a rectal thermometer or via the Swan Ganz (thermodilution catheter) once implanted. Animals were intubated and placed on a ventilator supplemented with oxygen to maintain oxygenation within the normal physiological range. The animals were mechanically ventilated at a rate of 11-13 breaths/minute and a peak inspiratory pressure of 18 cm H2O. The following parameters were regularly monitored in order to ensure proper ventilation of the animals but are not reported: SpO2, inspiratory and expiratory CO2, inspiratory O2 and respiratory rate.
(§1) A Swan Ganz (thermodilution catheter) was inserted into the right femoral vein via phlebotomy and advanced into the pulmonary artery for cardiac output measurements. A catheter was inserted in the left femoral artery via an arteriotomy for blood gas determination. Another catheter was inserted in the left femoral vein for blood collection for toxicokinetic evaluation. Finally, an incision was also performed on the left side of the neck to expose the left carotid artery and an electronic dual pressure sensor catheter (Millar) was placed via arteriotomy and advanced into the left ventricle. The catheter was positioned to simultaneously collect left ventricle blood pressure measurements as well as aortic pressure. In addition, a temporary catheter was placed in any of the cephalic veins for administration of Lactated Ringers at 10 mL/kg/hr throughout the course of the experiment.
(§2) Following surgical preparation, hemodynamic and electrocardiographic parameters were allowed to stabilize for at least 15 minutes. The vehicle control and test article were then administered, and hemodynamic, electrocardiographic, histamine and PK parameters were monitored.

[1] = Plasma concentration in primate cardiovascular safety study; assay type: in vivo, Cynomolgus monkey
Experimental: as §1
as §2, with “electrocardiographic” for “electrocardiographic, histamine and PK”, “monitored. Histamine and plasma PK data was obtained. […]” for “monitored.”

Cynomolgus monkeys = test: Cardiovascular safety in anesthetized Cynomolgus monkeys, escalating 15-minute IV infusions; assay type: in vivo, Cynomolgus monkey
Experimental: Female Cynomolgus monkeys were administered morphine (2 mg/kg subcutaneously) prior to induction of anesthesia. Monkeys were anesthetized with 1% α-chloralose (100 mg/kg intravenous), followed by a constant infusion of α-chloralose 40 mg/kg/hr, IV which was reduced to 30 mg/kg/hr approximately 92 to 98 min pre treatment due to low blood pressure. Monkeys were placed on a heating pad set to maintain the animal's body temperature at approximately 37° C. Body temperature was monitored throughout the experiment via a rectal thermometer or via the Swan Ganz (thermodilution catheter) once implanted. Monkeys were intubated and placed on a ventilator supplemented with oxygen to maintain oxygenation within the normal physiological range. The animals were mechanically ventilated at a rate of 12 breaths/minute and a pressure of 17-18 cm H2O. The following parameters were regularly monitored in order to ensure proper ventilation of the animals but are not reported: SpO2, inspiratory and expiratory CO2, inspiratory O2 and respiratory rate.
as §1
Following surgical preparation, hemodynamic and electrocardiographic parameters were allowed to stabilize for at least 15 minutes. The vehicle control and test article were then administered, and hemodynamic, electrocardiographic parameters were monitored. Histamine and plasma PK data was obtained.

conscious beagle dogs = test: Hemodynamics and plasma histamine in conscious beagle dogs, 10 minute infusions of increasing doses; assay type: in vivo, beagle dog; settings: for Heart rate / Histamine Concentration / Mean blood pressure: 10 minute infusion
Experimental: The effect of sulcardine sulfate intravenously administered over a 10 minute infusion on the mean blood pressure, heart rate, and plasma histamine concentration of conscious beagle dogs was performed. Three male and female purpose-bred beagles, weighing 10.0-12.7 Kg were intravenously administered repeated increasing doses of sulcardine sulfate (cumulative dose 1-44 mg/kg) at 15 minute intervals following a 10 minute infusion of the prior dose. The administered doses were as follows: 1 mg/kg, 3 mg/kg, 10 mg/kg, and 30 mg/kg sulcardine sulfate. Heart rate, mean arterial blood pressure, and histamine concentrations were measured (Table 3) at 10 minute intervals after completion of each drug infusion period.

anesthetized dogs = test: Cardiovascular safety in anesthetized dogs, escalating 15-minute IV infusions (hemodynamics, histamine, ECG); assay type: in vivo, dog
Experimental: (§3) Dogs were administered morphine (2 mg/kg subcutaneously) approximately 10-19 minutes prior to administration of anesthesia. Dogs were anesthetized with 1% α-chloralose (100 mg/kg intravenous), followed by a constant infusion of α-chloralose (35-75 mg/kg/hr, IV). Two healthy female dogs were administered escalating doses of sulcardine sulfate intravenously over 15 minutes in an acetate buffer system at dose levels of 10, 30 and 90-mg/kg with dose administrations separated by 60 minutes. Following drug administration, dogs were evaluated for ventricular, pulmonary and peripheral hemodynamic changes using Swanz Ganz and femoral catheters as well as by monitoring of blood oxygen saturation, test article blood level, body temperature, blood biochemistries, hematologies, ECG, and histamine.
as §3, with “90 mg/kg” for “90-mg/kg”, “minutes. Another set of two dogs received test article after pre-treatment with diphenhydramine (1 mg/kg administered 30 minutes prior to start of test article infusion).” for “minutes.”, “biochemistry, hematology,” for “biochemistries, hematologies,”, “histamine levels.” for “histamine.”

## sulcardine sulfate
minipigs; 10 mg/kg, Animal 1601C
  QTcC prolongation: 15%
minipigs; 10 mg/kg, per animal
  PR interval increase: +38% and +10%
minipigs; 90 mg/kg, during or at completion of the 15-minute infusion
  mortality: both animals succumbed
minipigs; 30 and 90 mg/kg, both animals
  QTcC prolongation: up to 30%
minipigs; all doses
  histamine levels: no appreciable increases
minipigs; starting at 10 mg/kg, both animals
  QRS durations: dose dependent pattern of increasing QRS durations
[1]; 90 mg/kg, 15 minute infusion
  mean peak plasma concentration: 845.5 ug/mL and 1,860.1 μM
[1]; primates, read-out: Cmax that led to observed side effects such as hypotension
  Cmax: 21 µM
Cynomolgus monkeys; 10 mg/kg
  heart rate (HR) change (relatively stable): ≤ 10%
  histamine levels: no appreciable increases
Cynomolgus monkeys; 10 mg/kg, per animal
  PR interval increase: +18% and +30%
  increase of QRS from baseline: 11% and 26%
Cynomolgus monkeys; 30 mg/kg infusion, animal 1501A
  conduction abnormality: right bundle branch block (RBBB)
Cynomolgus monkeys; 30 mg/kg, at the completion of infusion
  mean pulmonary arterial pressure increase: up to +245%
Cynomolgus monkeys; 90 mg/kg infusion / shortly before death, animal 1602B
  conduction abnormality: sino-atrial block with a ventricular escape rhythm and RBBB
Cynomolgus monkeys; 90 mg/kg, before completion of the 15-minute infusion
  mortality: death in both animals
Cynomolgus monkeys; 90 mg/kg, per animal
  QRS interval increase from baseline: 88% and 133%
  QTcB increase from baseline: 78 ms and 112 ms
Cynomolgus monkeys; 30 and 90 mg/kg
  PR interval increase: Further increases were noted
Cynomolgus monkeys; Animal No. 1501A, after 10 minutes of the 30 mg/kg infusion
  histamine levels: transient increases
Cynomolgus monkeys; Animal No. 1602B, any dose levels
  histamine levels: No appreciable increases
Conscious beagle dogs; 1 mg/kg
  Heart rate: 90.00 ± 12.58 bpm
  Histamine Concentration: 93.95 ± 24.11 ng/mL
  Mean blood pressure: 166.7 ± 10.99 mmHg
Conscious beagle dogs; 3 mg/kg
  Heart rate: 110.00 ± 10.41 bpm
  Histamine Concentration: 182.5 ± 46.11 ng/mL
  Mean blood pressure: 170.7 ± 7.36 mmHg
Conscious beagle dogs; 10 mg/kg
  Heart rate: 111.7 ± 17.64 bpm
  Histamine Concentration: 252.6 ± 85.78 ng/mL
  Mean blood pressure: 101.0 ± 28.45 mmHg
Conscious beagle dogs; 30 mg/kg
  Heart rate: 111.7 + 6.01 bpm
  Histamine Concentration: 465.9 ± 27.75 ng/mL
  Mean blood pressure: 69.7 ± 14.7 mmHg
Conscious beagle dogs; with erythemitous flare of face and ears and urticaria (hives)
  observations during intravenous administration over 10 minutes: dose-dependent decrease in arterial blood pressure
Anesthetized dogs; 10 mg/kg, one animal out of two, maximum at 10 minutes post start of dosing
  mean arterial pressure initial increase: +66%
Anesthetized dogs; 10 mg/kg, within 5 minutes of initiation
  QTc prolongation: ≤ 20 ms
Anesthetized dogs; 10 mg/kg, at 5 min and 10 min post-Rx respectively
  maximum histamine plasma concentration: 1874 nM and 1919 nM
Anesthetized dogs; 30 mg/kg
  maximum histamine plasma concentration: 251 nM and 183 nM
Anesthetized dogs; 30 mg/kg infusion, cumulative
  QTc prolongation: approximately 35 msec
Anesthetized dogs; 90 mg/kg
  maximum histamine plasma concentration: 99 nM and 64 nM
Anesthetized dogs; 90 mg/kg, final 15-minute infusion
  mortality: all animals succumbed
Anesthetized dogs; all dose levels (10, 30, 90 mg/kg)
  QRS widening: QRS widening was also noted at all dose levels
